PubChem BioAssay (NCI)
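Grown in 96-well plates, cells were treated for 48 hours with each compound at five concentrations. Insufficient inhibition: endpoint recorded as highest concentration tested. The concentration for 50% growth inhibition is given as GI50. TGI is the concentration that stops growth completely.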

Legend:
Assay in all cases: NCI tumour cell line growth inhibition, 48 h
[1] = test system: HCT-15 colon
[2] = test system: HL-60(TB) leukemia
[3] = test system: MALME-3M melanoma
[4] = test system: SK-MEL-2 melanoma
[5] = test system: COLO 205 colon
[6] = test system: SF-539 CNS
[7] = test system: SNB-19 CNS
[8] = test system: NCI-H522 lung
[9] = test system: 786-0 renal
[10] = test system: SN12C renal

Q: What does the source list for `CSc1s[s+]c(SC)c1[O-]`?
A: TGI [1]: > 100 µM; TGI [2]: 47.1 µM; TGI [3]: 40.6 µM; TGI [4]: > 100 µM; TGI [5]: 68.8 µM; TGI [6]: 43.2 µM; TGI [7]: > 100 µM; TGI [8]: 32.2 µM; TGI [9]: 30.3 µM; TGI [10]: 52.5 µM

Q: With `O=[N+]([O-])c1ccc(N(CCO)CCO)c2c1no[n+]2[O-]` as the compound, how does the GI50 [1] read?
A: 1.56 µM

Q: What about the TGI [1] of the same compound?
A: 7.06 µM

Q: And the GI50 [2]?
A: 0.759 µM

Q: And the TGI [2]?
A: 3.57 µM

Q: And the GI50 [3]?
A: 1.57 µM

Q: What about the TGI [3] of the same compound?
A: 4.64 µM

Q: What about the GI50 [4] of the same compound?
A: 1.8 µM

Q: What about the TGI [4] of the same compound?
A: 4.78 µM

Q: And the GI50 [5]?
A: 0.852 µM

Q: What about the TGI [5] of the same compound?
A: 2.22 µM

Q: What about the GI50 [6] of the same compound?
A: 1.26 µM

Q: And the TGI [6]?
A: 2.77 µM

Q: What about the GI50 [7] of the same compound?
A: 1.76 µM

Q: And the TGI [7]?
A: 5.9 µM

Q: What about the GI50 [8] of the same compound?
A: 0.926 µM

Q: What about the TGI [8] of the same compound?
A: 3.38 µM

Q: And the GI50 [9]?
A: 1.8 µM

Q: And the TGI [9]?
A: 4.21 µM

Q: And the GI50 [10]?
A: 1.61 µM

Q: And the TGI [10]?
A: 9.28 µM

Q: Which results are given for `CCN(C)S(=O)(=O)Nc1cccc(Nc2ncnc3cc(NC(=O)CCl)ccc23)c1Cl`?
A: GI50 [1]: 1.04 µM; TGI [1]: 5.52 µM; GI50 [2]: 4.74 µM; TGI [2]: 11.3 µM; GI50 [3]: 1.42 µM; TGI [3]: 5.62 µM; GI50 [4]: 4.36 µM; TGI [4]: 14.3 µM; GI50 [5]: 2.5 µM; TGI [5]: 6.51 µM; GI50 [6]: 3.43 µM; TGI [6]: 6.77 µM; GI50 [7]: 2.99 µM; TGI [7]: 7.18 µM; GI50 [8]: 0.693 µM; TGI [8]: 2.03 µM; GI50 [9]: 0.973 µM; TGI [9]: 4.04 µM; GI50 [10]: 1.08 µM; TGI [10]: 4.46 µM

Q: With `Cc1ccc(NC2=C(Cl)C(=O)c3nc(C)ccc3C2=O)cc1` as the compound, how does the GI50 [1] read?
A: 0.694 µM

Q: And the TGI [1]?
A: 2.32 µM

Q: What about the GI50 [2] of the same compound?
A: 1.98 µM

Q: What about the TGI [2] of the same compound?
A: 4.96 µM

Q: And the GI50 [3]?
A: 1.75 µM

Q: What about the TGI [3] of the same compound?
A: 3.23 µM

Q: What about the GI50 [4] of the same compound?
A: 1.82 µM

Q: And the TGI [4]?
A: 3.79 µM

Q: And the GI50 [5]?
A: 1.93 µM

Q: And the TGI [5]?
A: 4.37 µM

Q: And the GI50 [6]?
A: 1.67 µM

Q: What about the TGI [6] of the same compound?
A: 3.11 µM

Q: What about the GI50 [7] of the same compound?
A: 1.32 µM

Q: And the TGI [7]?
A: 3.01 µM

Q: And the GI50 [8]?
A: 1.88 µM

Q: And the TGI [8]?
A: 4.53 µM

Q: And the GI50 [9]?
A: 1.75 µM

Q: And the TGI [9]?
A: 3.23 µM

Q: And the GI50 [10]?
A: 1.37 µM

Q: What about the TGI [10] of the same compound?
A: 2.85 µM
